Test results reported in ChEMBL document CHEMBL1201862, “PubChem BioAssay data set” (2004).
Calls of active or inactive are those of the source.

Tests used:
Vasopressin V1a receptor = Vasopressin V1a receptor (Homo sapiens, UniProt P37288); experiment: Fluorescence-based cell-based high throughput dose response screening assay for agonists of the vasopressin 1 receptor (V1R).; format: functional
Oxytocin receptor = Oxytocin receptor (Homo sapiens, UniProt P30559); experiment: Counterscreen for vasopressin 1 receptor (V1R) agonists: Fluorescence-based cell-based high throughput dose response assay for agonists of the Oxytocin Receptor (OXTR). [Related pubchem assays: 2435 (Primary screen (OXTR agonists in singlicate)), 434964 (Confirmation screen (V1R agonists in triplicate)), 434969 (Counterscreen (OXTR agonists in …; format: functional
Streptococcus = experiment: Group A Streptococcus viability loss, dose response, counter-screen for streptokinase expression inhibitor project, luminescence, BacTiterGlo (AID 1915); format: functional, organism-based;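 further: potency for reduction of bacterial viability or growth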
Streptokinase A = biological target: T1, Streptokinase A (Streptococcus pyogenes serotype M1, UniProt P10520); experiment: S. pyogenes streptokinase expression inhibitors, potency, dose response, plasminogen activation absorbance, OD405 (AID 1914); format: functional, Streptococcus pyogenes M1 GAS;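 further: secreted streptokinase activity via plasminogen activation per viability signal from cell pellet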
T1 sequence (P10520 whole entry): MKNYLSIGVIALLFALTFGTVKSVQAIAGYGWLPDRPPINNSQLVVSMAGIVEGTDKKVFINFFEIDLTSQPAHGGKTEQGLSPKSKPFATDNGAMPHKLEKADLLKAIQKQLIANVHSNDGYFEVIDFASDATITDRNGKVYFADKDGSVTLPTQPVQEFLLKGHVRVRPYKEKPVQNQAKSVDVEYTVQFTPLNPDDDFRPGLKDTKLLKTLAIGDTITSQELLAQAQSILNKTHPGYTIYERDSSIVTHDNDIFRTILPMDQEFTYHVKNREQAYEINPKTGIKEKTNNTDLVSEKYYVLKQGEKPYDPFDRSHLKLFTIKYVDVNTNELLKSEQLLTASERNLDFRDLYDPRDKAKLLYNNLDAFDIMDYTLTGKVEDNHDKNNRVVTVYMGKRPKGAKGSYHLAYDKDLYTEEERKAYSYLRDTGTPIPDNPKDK

Estrogen receptor = biological target: T2, Estrogen receptor (Homo sapiens, UniProt P03372); experiment: potentiators of ERα–SRC-1 coactivator binding, dose response, biochemical, TR-FRET, ERα LBD (AID 737)
T2 sequence (P03372 whole entry): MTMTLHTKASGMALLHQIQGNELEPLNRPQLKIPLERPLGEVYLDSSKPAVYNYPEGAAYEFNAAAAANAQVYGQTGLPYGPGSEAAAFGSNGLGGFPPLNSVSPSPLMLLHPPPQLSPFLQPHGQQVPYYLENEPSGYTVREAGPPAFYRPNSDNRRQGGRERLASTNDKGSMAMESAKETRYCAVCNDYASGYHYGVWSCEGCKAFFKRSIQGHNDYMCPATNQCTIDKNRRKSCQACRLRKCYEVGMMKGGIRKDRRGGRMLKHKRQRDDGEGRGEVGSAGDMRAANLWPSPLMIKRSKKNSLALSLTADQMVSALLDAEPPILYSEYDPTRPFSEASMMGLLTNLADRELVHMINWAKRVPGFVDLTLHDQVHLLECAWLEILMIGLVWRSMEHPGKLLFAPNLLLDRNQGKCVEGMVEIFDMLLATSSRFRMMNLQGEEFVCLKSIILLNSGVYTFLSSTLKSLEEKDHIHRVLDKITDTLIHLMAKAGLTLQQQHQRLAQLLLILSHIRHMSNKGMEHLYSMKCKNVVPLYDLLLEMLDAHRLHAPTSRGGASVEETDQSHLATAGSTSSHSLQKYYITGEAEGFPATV

[1] = tested on: Streptococcus sp. 'group A'; experiment: growth inhibition of control SK(-) GAS strain, dose response, counter-screen for streptokinase expression inhibitor project, luminescence, kanamycin, BacTiterGlo, confirmation (AID 1900); format: functional, organism-based
[2] = biological target: Mothers against decapentaplegic homolog 3 (Homo sapiens, UniProt P84022); experiment: SMAD3 transcription factor inhibitors, dose response (AID 715); format: functional
[3] = cytotoxicity in HEK-293T cells, dose response, cytotoxicity control for BCR NF-kB inhibitor project, luminescence, B-cell screen hits (AID 489021); format: functional, cell-based;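 further: HEK-293T cells carrying an NF-kB luciferase reporter; cells exposed to compound for about 14 hours before viability readout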
[4] = inhibitors of SNCA 5'UTR-driven reporter translation, confirmation, H4 neuroglioma cells, luminescence (AID 1988); format: functional, cell-based
cells = format: functional, cell-based
[5] = inhibitors of firefly luciferase expression or activity, dose response, H4 neuroglioma cells, luminescence (AID 1990); format: functional, cell-based
[6] = inhibitors of SNCA 5'UTR-driven translation, confirmation, luminescence, H4 neuroglioblastoma cells, dose confirmation (AID 2454); format: functional, cell-based;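 further: H4 neuroglioblastoma cells carrying an alpha-synuclein 5'UTR luciferase reporter; potency for inhibition of the luciferase signal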
[7] = Luminescence Cell-Based Dose Response HTS to Identify Inhibitors of 5'UTR Stem-Loop Driven Prion Protein mRNA Translation in H4 Neuroglioblastoma Cells. [Related pubchem assays: 1827 (Project Summary), 1813 (Primary HTS)]; format: functional
[8] = luciferase reporter signal reduction – luminescence, H4-C neuroglioblastoma cells, dose response (AID 2458); format: functional, cell-based;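 further: H4 neuroglioblastoma cells stably carrying a luciferase reporter gene fusion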
[9] = biological target: Epstein-Barr nuclear antigen 1 (Epstein-Barr virus (strain B95-8) (HHV-4) (Human herpesvirus 4), UniProt P03211); experiment: EBNA-1 inhibitors, dose response, biochemical, fluorescence polarization, 1536-well (AID 2381); parameters: species or system human gammaherpesvirus 4;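 further: fluorescence polarization of a Cy5 DNA probe bound by EBNA-1 protein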
[10] = biological target: Lytic switch protein BZLF1 (Epstein-Barr virus (strain B95-8) (HHV-4) (Human herpesvirus 4), UniProt P03206); experiment: EBV ZTA inhibitors, dose response, counter-screen for EBNA-1 inhibitor project, biochemical, fluorescence polarization, Epstein-Barr virus, 1536-well (AID 2377); parameters: species or system human gammaherpesvirus 4;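 further: fluorescence polarization of Cy5-labelled ZRE DNA probe bound by purified Zta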
[11] = A Cell Based Secondary Assay To Explore Cytotoxicity of Compounds that Sensitize Mycobacterium Tuberculosis to Beta-Lactam Antibiotics.; format: functional
[12] = inhibitors of Bluetongue virus cytopathic effect, confirmation, arbovirus, BSR cells (AID 1250); format: functional;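 further: protection from viral cytopathic effect measured as cell viability by ATP luminescence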
Cytochrome P450 3A4 = Cytochrome P450 3A4 (Homo sapiens, UniProt P08684); settings: Potency;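 further: confirmatory qHTS run detecting inhibitors and substrates of CYP3A4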
Cytochrome P450 2D6 = Cytochrome P450 2D6 (Homo sapiens, UniProt P10635); experiment: qHTS Assay for Inhibitors and Substrates of Cytochrome P450 2D6. [Related pubchem assays: 410 ]; format: ADME; settings: read-out: Potency
[13] = cytotoxicity toward NIH3T3 fibroblasts, dose response, counter-screen, cell-based, ATP luminescence, mouse fibroblasts (AID 2010); format: functional;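 further: cells exposed to compound for about 90 hours before reading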
Vero [14] = experiment: cells; format: functional, cell-based; settings: Chlorocebus sabaeus
[15] = A549 cell cytotoxicity, dose response, cytotoxicity control, plate reader, cherry-pick, antagonist series (AID 743412); format: functional, cell-based
[16] = LGR2 antagonists, dose response, cell-based, HEK293, CRE-luciferase reporter, cherry pick, set 2 (AID 743343); format: functional;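 further: transfected cells were stimulated with diluted bursicon conditioned medium after compound addition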
[17] = cytotoxicity in MIN6 insulinoma cells, dose response, cytotoxicity control, cell-based, mouse insulinoma (AID 2122); format: functional;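 further: confirmatory high-throughput counterscreen run to flag cytotoxic compounds; mouse MIN-6 beta cells carrying an insulin promoter eGFP reporter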
[18] = MC4R antagonists, dose response, counter-screen for LGR2 antagonist project, cell-based, plate reader, cherry pick (AID 743444); format: functional;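 further: transfected HEK 293 cells stimulated with alpha-MSH peptide; potency of inhibitors of the alpha-MSH evoked signal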
Vero [19] = experiment: cells; format: functional; settings: Chlorocebus sabaeus
[20] = HEK293 cell cytotoxicity, dose response, cytotoxicity control, plate reader, cherry-picked samples (AID 743446); format: functional, cell-based
[21] = biological target: Sphingosine 1-phosphate receptor 1 (Homo sapiens, UniProt P21453); format: functional;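 further: Tango beta-arrestin reporter U2OS cells stimulated with S1P near its EC80; inhibitor potency meaning antagonism of receptor activation by the natural agonist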
[22] = biological target: T3, Sphingosine 1-phosphate receptor 4 (Homo sapiens, UniProt O95977); experiment: Fluorescence dose response cell-based high throughput screening assay for antagonists of the Sphingosine 1-Phosphate Receptor 4 (S1P4). [Related pubchem assays: 1524 (Confirmation in triplicates.), 1510 (Primary screen.)]; format: functional
T3 sequence (O95977 whole entry): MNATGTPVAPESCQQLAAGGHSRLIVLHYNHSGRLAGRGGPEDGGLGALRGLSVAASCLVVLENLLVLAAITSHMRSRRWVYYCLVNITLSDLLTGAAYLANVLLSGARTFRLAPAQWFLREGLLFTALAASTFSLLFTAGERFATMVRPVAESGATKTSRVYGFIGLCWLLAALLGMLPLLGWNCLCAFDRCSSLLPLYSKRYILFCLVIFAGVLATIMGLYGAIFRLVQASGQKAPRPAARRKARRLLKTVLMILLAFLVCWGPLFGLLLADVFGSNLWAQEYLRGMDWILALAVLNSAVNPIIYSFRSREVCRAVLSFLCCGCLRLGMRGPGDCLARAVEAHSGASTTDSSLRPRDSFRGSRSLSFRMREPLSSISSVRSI

[23] = insulin promoter down-regulators in MIN6 cells, imaging, high-content screening, mouse beta cells (AID 1628); format: functional
[24] = HepG2 cell cytotoxicity, dose response, cytotoxicity control, plate reader, cherry-pick, antagonist series (AID 743416); format: functional, cell-based
[25] = biological target: T4, Microphthalmia-associated transcription factor (Homo sapiens, UniProt O75030); experiment: TRPM1 promoter luciferase signal decrease, dose response, MITF inhibitor project, cell-based, SK-MEL-5, cherry-picked, set 3 (AID 493073); format: functional
T4 sequence (O75030 whole entry): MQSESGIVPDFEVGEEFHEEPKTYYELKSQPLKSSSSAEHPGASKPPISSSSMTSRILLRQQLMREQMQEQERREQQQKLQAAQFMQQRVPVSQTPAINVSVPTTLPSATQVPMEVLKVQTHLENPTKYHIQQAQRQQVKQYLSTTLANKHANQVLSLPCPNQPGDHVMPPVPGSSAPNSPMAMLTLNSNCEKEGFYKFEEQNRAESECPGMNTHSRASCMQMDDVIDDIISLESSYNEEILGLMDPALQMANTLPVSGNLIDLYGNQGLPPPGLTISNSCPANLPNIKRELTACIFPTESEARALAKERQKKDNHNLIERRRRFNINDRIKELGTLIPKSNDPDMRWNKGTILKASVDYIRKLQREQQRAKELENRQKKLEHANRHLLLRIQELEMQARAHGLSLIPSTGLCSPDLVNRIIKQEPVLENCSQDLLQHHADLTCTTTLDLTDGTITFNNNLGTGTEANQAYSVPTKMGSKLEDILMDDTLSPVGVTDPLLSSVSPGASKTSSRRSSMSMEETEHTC

[26] = inhibitors of intracellular T. cruzi replication, confirmation, NIH3T3 host cells, beta-gal luminescence (AID 2044); format: functional, cell-based;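 further: intracellular parasites grown in NIH/3T3 mouse fibroblasts as host cells; luminescent beta-galactosidase reporter signal from transgenic T. cruzi replicating inside host cells; inhibitors lower the luminescence signal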

Chain of Mothers against decapentaplegic homolog 3 (P84022 whole entry): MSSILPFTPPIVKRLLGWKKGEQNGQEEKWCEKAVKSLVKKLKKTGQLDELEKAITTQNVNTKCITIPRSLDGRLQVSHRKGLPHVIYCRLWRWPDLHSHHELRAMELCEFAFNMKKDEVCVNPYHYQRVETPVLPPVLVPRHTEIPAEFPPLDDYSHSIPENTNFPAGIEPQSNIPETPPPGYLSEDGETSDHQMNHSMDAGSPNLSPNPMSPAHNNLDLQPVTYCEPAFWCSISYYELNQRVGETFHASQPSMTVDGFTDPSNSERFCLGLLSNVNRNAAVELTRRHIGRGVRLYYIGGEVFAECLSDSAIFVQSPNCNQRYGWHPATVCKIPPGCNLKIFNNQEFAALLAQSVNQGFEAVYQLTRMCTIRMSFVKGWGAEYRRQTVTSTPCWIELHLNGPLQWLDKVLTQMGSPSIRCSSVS
Chain of Lytic switch protein BZLF1 (P03206 whole entry): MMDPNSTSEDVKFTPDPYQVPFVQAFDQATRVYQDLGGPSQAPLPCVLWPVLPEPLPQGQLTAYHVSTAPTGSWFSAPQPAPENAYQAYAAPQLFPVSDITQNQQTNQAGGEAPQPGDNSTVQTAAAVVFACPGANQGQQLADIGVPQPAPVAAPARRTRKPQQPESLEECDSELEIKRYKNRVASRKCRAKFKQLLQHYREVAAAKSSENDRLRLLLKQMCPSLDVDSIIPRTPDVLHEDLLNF
Chain of Cytochrome P450 3A4 (P08684 whole entry): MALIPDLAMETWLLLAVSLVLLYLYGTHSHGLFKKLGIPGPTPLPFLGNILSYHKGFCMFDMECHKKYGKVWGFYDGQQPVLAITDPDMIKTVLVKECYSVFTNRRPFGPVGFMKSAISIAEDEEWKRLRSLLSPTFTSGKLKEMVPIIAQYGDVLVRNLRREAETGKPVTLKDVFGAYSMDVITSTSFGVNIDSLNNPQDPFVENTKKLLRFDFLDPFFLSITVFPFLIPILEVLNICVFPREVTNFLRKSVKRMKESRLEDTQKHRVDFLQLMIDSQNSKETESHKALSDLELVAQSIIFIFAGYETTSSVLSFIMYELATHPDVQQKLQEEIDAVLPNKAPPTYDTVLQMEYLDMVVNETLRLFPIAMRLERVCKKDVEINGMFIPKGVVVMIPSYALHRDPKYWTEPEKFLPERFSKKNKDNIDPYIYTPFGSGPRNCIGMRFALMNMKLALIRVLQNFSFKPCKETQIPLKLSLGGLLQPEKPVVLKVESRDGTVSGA
Chain of Sphingosine 1-phosphate receptor 1 (P21453 whole entry): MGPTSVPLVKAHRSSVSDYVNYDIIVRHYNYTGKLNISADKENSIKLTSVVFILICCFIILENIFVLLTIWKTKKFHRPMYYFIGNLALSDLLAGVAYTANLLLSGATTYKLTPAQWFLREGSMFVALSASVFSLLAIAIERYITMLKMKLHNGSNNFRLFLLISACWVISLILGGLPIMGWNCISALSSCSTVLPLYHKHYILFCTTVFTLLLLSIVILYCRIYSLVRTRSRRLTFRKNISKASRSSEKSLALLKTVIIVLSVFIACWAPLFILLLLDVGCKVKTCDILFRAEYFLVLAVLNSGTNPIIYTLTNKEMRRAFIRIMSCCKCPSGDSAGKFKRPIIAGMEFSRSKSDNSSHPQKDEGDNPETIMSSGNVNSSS
Chain of Cytochrome P450 2D6 (P10635 whole entry): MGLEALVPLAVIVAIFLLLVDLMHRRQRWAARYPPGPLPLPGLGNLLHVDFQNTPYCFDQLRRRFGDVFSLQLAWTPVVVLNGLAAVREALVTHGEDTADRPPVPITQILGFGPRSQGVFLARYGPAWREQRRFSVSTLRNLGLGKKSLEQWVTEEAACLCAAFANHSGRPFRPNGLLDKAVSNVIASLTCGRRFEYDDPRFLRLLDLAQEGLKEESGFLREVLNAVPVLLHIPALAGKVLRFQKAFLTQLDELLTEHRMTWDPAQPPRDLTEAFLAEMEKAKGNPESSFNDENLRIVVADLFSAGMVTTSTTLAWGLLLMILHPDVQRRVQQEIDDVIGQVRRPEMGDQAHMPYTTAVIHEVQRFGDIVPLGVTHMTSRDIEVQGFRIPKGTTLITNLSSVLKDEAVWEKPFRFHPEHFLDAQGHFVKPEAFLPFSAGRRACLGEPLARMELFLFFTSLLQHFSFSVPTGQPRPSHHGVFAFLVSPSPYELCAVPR
Chain of Oxytocin receptor (P30559 whole entry): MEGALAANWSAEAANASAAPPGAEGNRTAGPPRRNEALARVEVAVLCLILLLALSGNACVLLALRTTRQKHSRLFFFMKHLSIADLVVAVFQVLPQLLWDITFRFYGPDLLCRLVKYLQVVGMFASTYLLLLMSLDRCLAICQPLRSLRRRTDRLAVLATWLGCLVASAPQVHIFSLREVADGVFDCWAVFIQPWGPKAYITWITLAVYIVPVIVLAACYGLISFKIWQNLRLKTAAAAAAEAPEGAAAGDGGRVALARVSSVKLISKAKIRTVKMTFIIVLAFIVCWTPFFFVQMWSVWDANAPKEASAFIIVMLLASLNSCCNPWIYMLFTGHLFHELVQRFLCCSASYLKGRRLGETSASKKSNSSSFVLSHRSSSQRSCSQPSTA
Chain of Epstein-Barr nuclear antigen 1 (P03211 whole entry): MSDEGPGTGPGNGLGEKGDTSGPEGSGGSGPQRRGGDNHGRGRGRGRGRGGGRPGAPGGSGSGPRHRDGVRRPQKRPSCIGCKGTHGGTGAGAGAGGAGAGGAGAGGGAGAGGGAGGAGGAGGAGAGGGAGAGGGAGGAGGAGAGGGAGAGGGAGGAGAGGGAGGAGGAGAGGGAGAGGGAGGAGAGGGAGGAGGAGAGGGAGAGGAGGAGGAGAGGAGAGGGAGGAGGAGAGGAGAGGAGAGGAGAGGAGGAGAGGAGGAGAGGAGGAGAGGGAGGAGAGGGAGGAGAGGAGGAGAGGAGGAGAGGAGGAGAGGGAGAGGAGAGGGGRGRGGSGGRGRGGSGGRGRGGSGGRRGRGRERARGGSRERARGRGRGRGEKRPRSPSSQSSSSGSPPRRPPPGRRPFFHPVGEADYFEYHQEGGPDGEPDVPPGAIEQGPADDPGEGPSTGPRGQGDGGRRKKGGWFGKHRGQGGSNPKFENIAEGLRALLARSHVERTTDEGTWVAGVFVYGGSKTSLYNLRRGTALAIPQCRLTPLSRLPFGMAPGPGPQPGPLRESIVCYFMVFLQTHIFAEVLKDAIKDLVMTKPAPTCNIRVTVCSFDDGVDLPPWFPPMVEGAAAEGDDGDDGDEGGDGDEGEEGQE
Chain of Vasopressin V1a receptor (P37288 whole entry): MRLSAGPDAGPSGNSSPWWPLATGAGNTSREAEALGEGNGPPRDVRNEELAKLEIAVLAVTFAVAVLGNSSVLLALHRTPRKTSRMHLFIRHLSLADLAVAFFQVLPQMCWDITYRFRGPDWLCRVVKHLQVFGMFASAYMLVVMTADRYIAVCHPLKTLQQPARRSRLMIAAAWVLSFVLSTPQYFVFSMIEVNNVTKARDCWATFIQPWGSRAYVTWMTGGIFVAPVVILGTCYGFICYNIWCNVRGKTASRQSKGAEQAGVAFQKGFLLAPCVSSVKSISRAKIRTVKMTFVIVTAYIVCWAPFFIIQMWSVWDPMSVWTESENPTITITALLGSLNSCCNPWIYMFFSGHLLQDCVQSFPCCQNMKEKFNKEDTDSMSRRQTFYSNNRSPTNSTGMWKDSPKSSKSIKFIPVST

SMILES: CC(NC(=O)Nc1ccc([N+](=O)[O-])cc1)C(c1ccccc1)N1CCOCC1 (stereo not given)
- EC50 (Vasopressin V1a receptor): 4.67 µM (active)
- EC50 (Oxytocin receptor): > 29.9 µM (not active)

SMILES: Cn1nnnc1SCC(=O)Nc1nc(-c2ccccc2)c(-c2ccccc2)o1
- EC50 (Streptococcus): 26 µM (active)
- EC50 (Streptokinase A): > 150 µM (not active)
- EC50 (Estrogen receptor): 22.2 µM (active)
- EC50 [1]: 12.7 µM (active)

SMILES: Cc1cccc(CSc2nc3c(cc2C#N)CCC3)c1
- IC50 [2]: 18.5 µM (active)

SMILES: Nc1ccc(-c2cc3ccccc3oc2=O)cc1
- IC50 [3]: > 80 µM (inactive)
- EC50 [4]: < 0.1 µM (active)
- EC50 (cells): 0.215 µM (active)
- EC50 [5]: < 0.1 µM (active)
- EC50 [6]: 0.156 µM (active)
- EC50 [7]: < 0.1 µM (active)
- EC50 [8]: 0.125 µM (active)

SMILES: COc1ccc(C(=O)Nc2nnc(Cc3cccs3)s2)cc1OC
- IC50 [3]: > 80 µM (inactive)
- IC50 [9]: 41.5 µM (not active)
- IC50 [10]: > 111 µM (not active)

SMILES: COC(=O)c1c(C)n(-c2ccc(C)cc2)c2ccc(O)cc12
- CC50 [11]: > 40 µM (active)

SMILES: O=C(Nc1nnc(SCc2ccc(Cl)cc2Cl)s1)C1COc2ccccc2O1 (stereo not given)
- IC50 [12]: 49 µM (active)

SMILES: CC12C=C(/C=C/c3ccc(C(F)(F)F)cc3)C(C)(C1)C(c1ccc(C(F)(F)F)cc1)CC2=O (stereo not given)
- AC50 (Cytochrome P450 3A4): 3.98 µM (inconclusive)
- AC50 (Cytochrome P450 2D6): 6.31 µM (inconclusive)

SMILES: O=C(Cn1ncc(Cl)c(Cl)c1=O)N1CCN(Cc2ccccc2)CC1
- EC50 [13]: 2.06 µM (active)
- IC50 (Vero [14]): > 25 µM (active)
- AC50 [15]: 11.1 µM (active)
- AC50 [16]: 31.5 µM (active)
- IC50 [17]: 2.16 µM (active)
- AC50 [18]: 34.1 µM (active)
- CC50 (Vero [19]): 11.3 µM (active)
- AC50 [20]: 7.54 µM (active)
- IC50 [21]: 9.93 µM (active)
- IC50 [22]: 3.5 µM (active)
- IC50 [23]: 3.08 µM (active)
- AC50 [24]: 17.8 µM (active)
- AC50 [25]: 10.9 µM (active)
- EC50 [26]: 2.22 µM (active)
